In patent publication US12187705B2, “Heteroaryl-triazole and heteroaryl-tetrazole compounds as pesticides” (Bayer Aktiengesellschaft, priority 2018, dated 2025):

How the values were obtained:
Type in all cases: in vivo
Phaedon cochleariae = Phaedon cochleariae spray test; conditions: foliar, 168 h, Chinese cabbage leaf disks, after 7 days
Experimental: Phaedon cochleariae—Spray Test
(§1) To produce a suitable preparation of active compound, 1 part by weight of active compound is mixed with the stated amount of solvents and is diluted with water, containing an emulsifier concentration of 1000 ppm, to the desired concentration. Further test concentrations are prepared by dilution with emulsifier containing water.
Chinese cabbage (Brassica pekinensis) leaf disks are sprayed with a preparation of the active ingredient of the desired concentration. Once dry, the leaf disks are infested with mustard beetle larvae (Phaedon cochleariae).
After 7 days mortality in % is determined. 100% means all beetle larvae have been killed and 0% means none of the beetle larvae have been killed.

Rhipicephalus sanguineus = Rhipicephalus sanguineus in-vitro contact test with adult brown dog ticks; conditions: 5 μg/cm^2 (=500 g/ha), after 48 hours; for pest or weed control at 5 µg/cm2, 5 µg/cm2: Rhipicephalus sanguineus, read-out: efficacy (ticks dead or moribund)
Experimental: Rhipicephalus sanguineus—In-Vitro Contact Test with Adult Brown Dog Ticks
9 mg compound is solved in 1 ml acetone and diluted with acetone to the desired concentration. 250 μl of the test solution is filled in 25 ml glass test tubes and homogeneously distributed on the inner walls by rotation and tilting on a shaking device (2 h at 30 rpm). With a compound concentration of 900 ppm, an inner surface of 44.7 cm^2 and a homogeneous distribution, a dose of 5 μg/cm^2 is achieved.
After the solvent has evaporated, each test tube is filled with 5-10 adult brown dog ticks (Rhipicephalus sanguineus), closed with a perforated lid and incubated in a lying position at room temperature and relative humidity. After 48 hours efficacy is determined. The ticks are patted on the ground of the tubes and are incubated on a heating plate at 45-50° C. for at most 5 minutes. Immotile or uncoordinated moving ticks, which are not able to escape the heat by climbing upwards, are marked as dead or moribund.
An efficacy of 100% means all ticks are dead or moribund; 0% means no ticks are dead or moribund.

[1] = system: Aedes aegypti strain MONHEIM; assay: Aedes aegypti test (AEDSAE surface treatment & contact assay); conditions: 24 hours after contact, read-out: efficacy (mortality)
Summary of the method: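 Compound dissolved in acetone (2 mg/ml) with 2000 ppm rapeseed oil methyl ester and dried onto a glazed tile. Adult mosquitoes held on the treated surface for 30 minutes exposure. Percent mortality scored 24 hours after contact.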

Nezara viridula = Nezara viridula spray test; conditions: in Hordeum vulgare, 96 h
Summary of the method: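 Barley plants infested with stink bug larvae were sprayed with compound diluted in water containing 1000 ppm emulsifier. Mortality (%) was scored after 4 days, 100% meaning all bugs killed.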

Boophilus microplus = Boophilus microplus injection test; conditions: 20 μg/animal, egg deposition after 7 days; for pest or weed control at 0.02 mg: Rhipicephalus microplus, 168 h, read-out: efficacy (infertile eggs)
Summary of the method: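 Engorged adult female ticks, five per dose, received 1 μl of compound in DMSO injected into the abdomen and were kept in a climate chamber. Fertile egg deposition was checked after 7 days, with eggs of unclear fertility held until hatching at about 42 days. Efficacy 100% = all eggs infertile, 0% = all fertile.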

[2] = system: Culex quinquefasciatus strain P00; assay: Culex quinquefasciatus test (CULXFA surface treatment & contact assay); conditions: surface concentration 20 mg/m^2, 30 minutes exposure, 24 hours after contact, read-out: efficacy (mortality)
Summary of the method: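 Compound dissolved in acetone (2 mg/ml) with 2000 ppm rapeseed oil methyl ester, applied to glazed tile and dried. Adult strain P00 mosquitoes exposed to the surface for 30 minutes. Percent mortality scored 24 hours after contact.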

Myzus persicae = Myzus persicae oral test; conditions: 120 h
Summary of the method: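 Feeding test: compound diluted in water was combined with IPL41 insect medium (33%+15% sugar) under a parafilm seal. A mixed population of green peach aphids fed through the membrane. Mortality (%) was scored after 5 days.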

Ctenocephalides felis [3] = assay: Ctenocephalides felis in-vitro contact test adult cat flea; conditions: 5 μg/cm^2 (=500 g/ha), after 48 hours; for pest or weed control at 5 µg/cm2, 5 µg/cm2: Ctenocephalides felis, read-out: efficacy (fleas dead or moribund)
Summary of the method: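 Compound in acetone was coated on glass tube walls, giving 5 μg/cm^2 at 900 ppm. 5-10 adult cat fleas were held at room temperature for 48 h, then heat-challenged at 45-50° C. Fleas immotile or uncoordinated were scored dead/moribund, expressed as % efficacy.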

Ctenocephalides felis [4] = assay: Ctenocephalides felis oral test; conditions: Ctenocephalides felis, in Bos taurus, po, 48 h
Summary of the method: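 About 20 adult unfed fleas fed through parafilm on cattle blood containing compound (DMSO concentrate diluted in blood); blood held at 37° C., fleas at room temperature. Mortality in % scored after 2 days (100% = all killed).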

[5] = system: Anopheles funestus strain FUMOZ-R; assay: Anopheles funestus test (ANPHFU surface treatment & contact assay); conditions: 24 hours after contact, read-out: efficacy (mortality)
Summary of the method: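 Compound dissolved in acetone (2 mg/ml) with 2000 ppm rapeseed oil methyl ester, dried onto glazed tile; adult Anopheles funestus FUMOZ-R exposed for 30 minutes. Percent mortality scored 24 hours after contact.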

Nilaparvata lugens = Nilaparvata lugens spray test; conditions: Nilaparvata lugens, in Oryza sativa, 96 h
Summary of the method: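 Rice plants sprayed with compound diluted in water containing 1000 ppm emulsifier, then infested with brown planthopper. Mortality (%) scored after 4 days, 100% meaning all insects killed.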

Diabrotica balteata = Diabrotica balteata spray test; conditions: 160 μg/well, wheat seeds, after 7 days; for pest or weed control at 160 µg/disc, 160 µg/well: Diabrotica balteata, 168 h, read-out: efficacy (seedlings grown)
Summary of the method: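 Wheat seeds germinated 1 day on agar were sprayed with compound diluted in water with 1000 ppm emulsifier, then infested with 10-20 Diabrotica balteata larvae. Efficacy in % scored after 7 days: 100% = seedlings grown as untreated, uninfected control; 0% = no seedlings grown.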

Spodoptera frugiperda = Spodoptera frugiperda spray test; conditions: in Zea mays, 168 h
Summary of the method: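 Compound mixed with solvent, diluted with 1000 ppm emulsifier water to test concentrations; sprayed on maize leaf pieces; dried; larvae added; mortality (%) scored at 7 d.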

Tetranychus urticae = Tetranychus urticae spray test OP-resistant; conditions: Tetranychus urticae, foliar, 144 h, French bean leaf disks, after 6 days
Experimental: Tetranychus urticae—Spray Test OP-Resistant
as §1
French bean (Phaseolus vulgaris) leaf disks infected with all instars of the two spotted spidermite (Tetranychus urticae), are sprayed with a preparation of the active ingredient of the desired concentration.
After 6 days mortality in % is determined. 100% means all spider mites have been killed and 0% means none of the spider mites have been killed.

[6] = system: cattle ticks (Boophilus microplus) strane Parhurst, SP-resistant; assay: Boophilus microplus dip test; conditions: 100 ppm, egg deposition after 7 days
Experimental: Boophilus microplus—Dip Test
Test animal: cattle ticks (Boophilus microplus) strane Parhurst, SP-resistant
Solvent: dimethyl sulfoxide
To produce a suitable preparation of active compound, 10 mg of active compound are dissolved in 0.5 ml solvent, and the concentrate is diluted with water to the desired concentration.
This compound solution is pipetted into tubes. 8-10 engorged, adult, female cattle ticks (Boophilus microplus) are placed in perforated tubes. These tubes are immersed in the aqueous compound solution until the ticks are completely moistened. After the liquid has drained off, the ticks are transferred to a filter paper in a plastic tray and stored in a climate chamber.
After 7 days egg deposition of fertile eggs is monitored. Eggs where fertility is not visible are stored in a climate chamber till hatching after about 42 days. An efficacy of 100% means all eggs are infertile; 0% means all eggs are fertile.

[7] = surface concentration 4 mg/m^2, 30 minutes exposure
[8] = surface concentration 20 mg/m^2, 30 minutes exposure

Row | SMILES | mortality at 500 g/ha (Phaedon cochleariae) [%] | pest or weed control at 5 µg/cm2, 5 µg/cm2 (Rhipicephalus sanguineus) [%] | mortality at 500 g/ha (Nezara viridula) [%] | pest or weed control at 0.02 mg (Boophilus microplus) [%] | mortality at 20 ppm (Myzus persicae) [%] | pest or weed control at 5 µg/cm2, 5 µg/cm2 (Ctenocephalides felis [3]) [%] | mortality at 100 ppm (Ctenocephalides felis [4]) [%] | mortality at 500 g/ha (Nilaparvata lugens) [%] | pest or weed control at 160 µg/disc, 160 µg/well (Diabrotica balteata) [%] | mortality at 500 g/ha (Spodoptera frugiperda) [%] | mortality at 4 ppm (Myzus persicae) [%] | efficacy (infertile eggs) [6] [%] | efficacy (infertile eggs) (Boophilus microplus) [%] | efficacy (fleas dead or moribund) (Ctenocephalides felis [3]) [%] | efficacy (seedlings grown) (Diabrotica balteata) [%] | further results
1 | CC(c1ncnn1-c1ncccn1)N(CC1CC1)C(=O)c1cccc(S(C)(=O)=O)c1 (stereo not drawn) [Example I-001] | 100 | 100 | 100 | 100 | 100 | 80 | 100 | 100 | – | – | – | – | – | – | – | mortality at 4 mg/m2 [1, 7]: 80 to 100%; mortality at 20 mg/m2 [1, 8]: 90 to 100%; mortality at 20 mg/m2 [2]: 80 to 100%; mortality at 4 mg/m2 [5, 7]: 85 to 100%; mortality at 20 mg/m2 [5, 8]: 85 to 100%
2 | CC(c1ncnn1-c1ncccn1)N(CC1CC1)C(=O)c1cc(C(F)(F)F)cc(Cl)c1F (stereo not drawn) [Example I-004] | 100 | 80 | 100 | – | 100 | – | 100 | 100 | 100 | 83 | – | – | – | – | – | –
3 | CC(c1ncnn1-c1ncccn1)N(CC1CC1)C(=O)c1cc(C2CC2)cc(C(F)(F)F)c1 (stereo not drawn) [Example I-008] | 100 | – | 100 | – | 100 | – | – | 100 | 100 | 100 | 100 | – | – | – | – | mortality at 500 g/ha (Tetranychus urticae): 95%
4 | CC(NC(=O)c1cc(Cl)cc(S(C)(=O)=O)c1)c1ncnn1-c1ncccn1 (stereo not drawn) [Example I-020, 3-chloro-5-(methylsulfonyl)-N-{1-[1-(pyrimidin-2-yl)-1H-1,2,4-triazol-5-yl]ethyl}benzamide] | 100 | – | 100 | 100 | 100 | 100 | 100 | 100 | 100 | – | 100 | 100 | – | – | – | –
5 | Cc1nc(C(C)NC(=O)c2cc(Cl)cc(S(C)(=O)=O)c2)n(-c2ncccn2)n1 (stereo not drawn) [Example I-034] | – | – | – | – | – | – | – | – | – | – | – | 100 | 100 | 100 | 100 | efficacy (ticks dead or moribund) (Rhipicephalus sanguineus): 80%
6 | CC(NC(=O)c1cc(Cl)cc(S(C)(=O)=O)c1)c1ncnn1-c1ccc(C#N)cn1 (stereo not drawn) [Example I-035] | – | – | – | – | – | – | – | – | – | – | – | 100 | 100 | 100 | 100 | –
